Test results published in PMC5469811, “Identification of GXXXXG motif in Chrysophsin-1 and its implication in the design of analogs with cell-selective antimicrobial and anti-endotoxin activities” (Scientific Reports, 2017).
Values after ≈ are worked out from the molar mass of the structure shown. Like-named read-outs stand apart in the source and are kept apart here. Blank lines part the entries; values can stand above or below the compound they belong to. Residues, ends and D or L forms follow the SMILES beside them.

Assays:
[1] = system: S. aureus (ATCC 25923); format: cell-based, Staphylococcus aureus; details: ATCC 25923, 1 h
Protocol: (§1) E. coli ATCC25922 was grown to 10^6 CFU/ml in fresh MH broth with various divalent and monovalent salts at their physiological concentrations. Serial dilutions of chrysophsin-1 and its variants prepared with the same MH broth were added to the E. coli ATCC 25922 suspensions. The bacteria were incubated at 37 °C in a shaking incubator for 18 h and the MIC values of individual peptides against E. coli ATCC 25922 were determined. Thermal tolerance of Chrysophsin-1 and its variants was checked by incubating the peptides at 4 °C, 60 °C and 90 °C for 1 h prior to MIC determination. The antibacterial activity in presence of serum was carried out by adding a final concentration of 10% fetal bovine serum in the assay diluents containing 0.4% BSA, 0.02% glacial acetic acid. The subsequent steps in both the experiments were consistent with the MIC determination method.

[2] = system: Klebsiella pneumoniae (ATCC 27736); assay: microbe, parasite or virus in culture; format: cell-based; details: read-out: Minimum inhibitory concentration (MIC)
Protocol: (§2) Antibacterial assay against various Gram-positive and Gram-negative strains of bacteria was performed by the serial two-fold dilution method according to the previously reported procedure, [36]. The antibacterial assays were repeated thrice and the averages of these MIC values were reported.

[3] = system: Staphylococcus aureus (BAA-44)MDR; assay: microbe, parasite or virus in culture; format: cell-based; details: read-out: Minimum inhibitory concentration (MIC)
Protocol: as §2

[4] = system: Staphylococcus aureus (ATCC 700698 MRSA); assay: microbe, parasite or virus in culture; format: cell-based; details: read-out: Minimum inhibitory concentration (MIC)
Protocol: as §2

[5] = system: Staphylococcus aureus (ATCC 33592) Methicillin resistant Genatmicin resistant; assay: microbe, parasite or virus in culture; format: cell-based; details: read-out: Minimum inhibitory concentration (MIC)
Protocol: as §2

[6] = system: Staphylococcus aureus (ATCC 700699 MRSA); assay: microbe, parasite or virus in culture; format: cell-based; details: read-out: Minimum inhibitory concentration (MIC)
Protocol: as §2

[7] = system: Staphylococcus aureus (ATCC 29213); assay: microbe, parasite or virus in culture; format: cell-based; details: read-out: Minimum inhibitory concentration (MIC)
Protocol: as §2

[8] = system: Escherichia coli (ATCC 9637); assay: microbe, parasite or virus in culture; format: cell-based; details: read-out: Minimum inhibitory concentration (MIC)
Protocol: as §2

[9] = system: Escherichia coli (ATCC 25922); assay: microbe, parasite or virus in culture; format: cell-based; details: read-out: Minimum inhibitory concentration (MIC)
Protocol: as §2

[10] = system: Staphylococcus aureus (ATCC 25923); assay: microbe, parasite or virus in culture; format: cell-based; details: read-out: Minimum inhibitory concentration (MIC)
Protocol: as §2

[11] = system: Pseudomonas aeruginosa (ATCC BAA-427); assay: microbe, parasite or virus in culture; format: cell-based; details: read-out: Minimum inhibitory concentration (MIC)
Protocol: as §2

[12] = system: Bacillus subtilis (ATCC 6633); assay: microbe, parasite or virus in culture; format: cell-based; details: read-out: Minimum inhibitory concentration (MIC)
Protocol: as §2

[13] = system: E. coli ATCC 25922; format: cell-based, Escherichia coli; details: ATCC 25922, 18 h
Protocol: as §1

[14] = system: E. coli (ATCC 25922); format: cell-based, Escherichia coli; details: ATCC 25922, 1 h
Protocol: as §1

[15] = system: E. coli ATCC 25922; assay: Synergy with conventional antibiotics, checkerboard titration; format: cell-based, Escherichia coli
Protocol: The checkerboard titration method was followed to check the synergy of peptides with other antibiotics. First, 2-fold serial dilutions of the antibiotics and antimicrobial peptides were prepared. Subsequently, 50 μl each of different concentrations of antibiotics and of antimicrobial peptides was mixed and added into 100 μl of log phase bacteria culture in a 96-well plate. The plates were then incubated at 37 °C for 24 h. The fractional inhibitory concentration (FIC) index (FICI) was calculated as follows[39]: FICI=(MICofdrugAincombination)/(MICofdrugAalone)+(MICofdrugBincombination)/(MICofdrugB): FICI < 0.5 is considered to indicate synergy; 0.5 < FICI < 1.0 is considered additive; 1.0 < FICI < 4.0 is considered indifferent; and FICI > 4.0 is considered antagonism.

[16] = system: Sporothrix schenckii (Patient isolates); assay: microbe, parasite or virus in culture; format: cell-based; details: 48 h; read-out: Minimum inhibitory concentration (MIC)
[17] = system: Cryptococcus neoformans; assay: microbe, parasite or virus in culture; format: cell-based; details: 72 h; read-out: Minimum inhibitory concentration (MIC)
Protocol: (§3) The anti- fungal activity of peptides was performed according to the standard micro broth dilution technique as per NCCLS guidelines. These plates were incubated in a moist chamber at 35 °C, and an absorbance at 492 nm was recorded on a VersaMax microplate reader after 48 h for C. albicans ATCC 10231 and C. parapsilosis ATCC 22019 and 72 h for C. neoformans.

[18] = system: Candida parapsilosis (ATCC 22019); assay: microbe, parasite or virus in culture; format: cell-based; details: ATCC 22019, 48 h; read-out: Minimum inhibitory concentration (MIC)
Protocol: as §3

[19] = system: Candida albicans (ATCC 10231); assay: microbe, parasite or virus in culture; format: cell-based; details: ATCC 10231, 48 h; read-out: Minimum inhibitory concentration (MIC)
Protocol: as §3

Antibacterial activity (MIC) after incubating peptide at 4 °C [1]: 3 µM
Antibacterial activity (MIC) after incubating peptide at 60 °C [1]: 4.3 µM
Antibacterial activity (MIC) after incubating peptide at 90 °C [1]: 8.6 µM
MIC ([2]; ATCC 27736): 3.3 µM (≈ 9.67 µg/mL)
MIC ([3]; BAA-44): 1.6 µM (≈ 4.69 µg/mL)
MIC ([4]; ATCC 700698): 1.6 µM (≈ 4.69 µg/mL)
MIC ([5]; ATCC 33592): 0.8 µM (≈ 2.35 µg/mL)
MIC ([6]; ATCC 700699): 1.6 µM (≈ 4.69 µg/mL)
MIC ([7]; ATCC 29213): 1.6 µM (≈ 4.69 µg/mL)
MIC ([8]; ATCC 9637): 3.3 µM (≈ 9.67 µg/mL)
MIC ([9]; ATCC 25922): 4.1 µM (≈ 12 µg/mL)
MIC ([10]; ATCC 25923): 3 µM (≈ 8.79 µg/mL)
MIC ([11]; ATCC BAA-427): 6.8 µM (≈ 19.9 µg/mL)
MIC ([12]; ATCC 6633): 3 µM (≈ 8.79 µg/mL)
Antibacterial activity (MIC) in the presence of 10% FBS [13]: 8.6 µM
Antibacterial activity (MIC) in the presence of FeCl3 [13]: 4.1 µM
Antibacterial activity (MIC) in the presence of KCl [13]: 4.3 µM
Antibacterial activity (MIC) in the presence of MgCl2 [13]: 4.3 µM
Antibacterial activity (MIC) in the presence of NH4Cl [13]: 2.0 µM
Antibacterial activity (MIC) in the presence of NaCl [13]: 8.6 µM
Antibacterial activity (MIC) in the presence of ZnCl2 [13]: 2 µM
Antibacterial activity (MIC) after incubating peptide at 4 °C [14]: 4.1 µM
Antibacterial activity (MIC) after incubating peptide at 60 °C [14]: 4.3 µM
Antibacterial activity (MIC) after incubating peptide at 90 °C [14]: 8.3 µM
MIC [16]: 13.6 µM (≈ 39.9 µg/mL)
MIC [17]: 6.8 µM (≈ 19.9 µg/mL)
MIC [18]: 6.8 µM (≈ 19.9 µg/mL)
MIC [19]: 3 µM (≈ 8.79 µg/mL)
SMILES: CC[C@H](C)[C@H](NC(=O)[C@H](C)NC(=O)[C@H](CCCCN)NC(=O)CNC(=O)[C@H](C)NC(=O)[C@H](Cc1c[nH]cn1)NC(=O)[C@@H](NC(=O)[C@H](C)NC(=O)[C@@H]1CCCN1C(=O)[C@H](CCCCN)NC(=O)[C@@H](NC(=O)[C@H](CC(C)C)NC(=O)[C@H](Cc1c[nH]c2ccccc12)NC(=O)CNC(=O)[C@H](Cc1ccccc1)NC(=O)[C@@H](N)Cc1ccccc1)[C@@H](C)CC)[C@@H](C)CC)C(=O)N[C@@H](Cc1c[nH]cn1)C(=O)NCC(=O)N[C@@H](CC(C)C)C(=O)N[C@H](C(=O)N[C@@H](Cc1c[nH]cn1)C(=O)N[C@@H](CCCNC(=N)N)C(=O)N[C@@H](CCCNC(=N)N)C(=O)N[C@@H](CCCNC(=N)N)C(=O)N[C@@H](Cc1c[nH]cn1)C(N)=O)[C@@H](C)CC [Peptide G8P-Chr-1] (H-FFGWLIKPAIHAGKAIHGLIHRRRH-NH2; N-terminus and C-terminus assumed)
interaction of peptide with chloramphenicol (by FICI) [15]: synergy (FICI < 0.5 is considered to indicate synergy)

MIC ([2]; ATCC27736, Klebsiella pneumoniae (ATCC 27736), averages of three repeats): 0.15 µM (≈ 0.0479 µg/mL)
MIC ([3]; BAA44, Staphylococcus aureus (BAA-44) MDR, averages of three repeats): 39.1 µM (≈ 12.5 µg/mL)
MIC ([4]; Staphylococcus aureus (ATCC 700698 MRSA), averages of three repeats): > 156 µM
MIC ([5]; ATCC33592, Staphylococcus aureus (ATCC 33592), methicillin and gentamicin resistant, averages of three repeats): 1.22 µM (≈ 0.39 µg/mL)
MIC ([6]; Staphylococcus aureus (ATCC 700699 MRSA), averages of three repeats): > 156 µM
MIC ([7]; ATCC29213, Staphylococcus aureus (ATCC 29213), averages of three repeats): 2.44 µM (≈ 0.779 µg/mL)
MIC ([8]; ATCC9637, Escherichia coli (ATCC 9637), averages of three repeats): 0.15 µM (≈ 0.0479 µg/mL)
MIC ([9]; ATCC25922, Escherichia coli (ATCC 25922), averages of three repeats): 0.3 µM (≈ 0.0958 µg/mL)
MIC ([10]; ATCC25923, Staphylococcus aureus (ATCC 25923), averages of three repeats): 1.22 µM (≈ 0.39 µg/mL)
MIC ([11]; ATCCBAA427, Pseudomonas aeruginosa (ATCC BAA-427), averages of three repeats): 1.22 µM (≈ 0.39 µg/mL)
MIC ([12]; ATCC6633, Bacillus subtilis (ATCC 6633), averages of three repeats): 1.2 µM (≈ 0.383 µg/mL)
SMILES: CCn1cc(C(=O)O)c(=O)c2cc(F)c(N3CCNCC3)cc21 [Norfloxacin, reference compound]
